Active and inactive are the calls of the source. The calls are words filed in the database; no cut-off is given here.
How the values were obtained:
[1] = test system: B16-F10; experiment: Antimetastatic activity against mouse B16F10 cells xenografted in C57BL/6 mouse assessed as reduction in lung metastasis at 30 mg/kg, ip administered once daily for 2 weeks with 2 days rest after day 5 and measured after 15 days relative to control; assay type: functional; parameters: scale not given: the % may be the effect or the level left
[2] = test system: A-375; experiment: Antitumor activity against human A375 cells xenografted in nude mouse assessed as reduction in tumor weight at 30 mg/kg, ip administered once daily for 14 days relative to control; assay type: functional; parameters: scale not given: the % may be the effect or the level left
[3] = test system: A-375; experiment: Inhibition of anchorage-dependent colony formation in human A375 cells assessed as decrease in colony number at 5 nM after 12 days by crystal violet-staining based assay relative to control; assay type: functional; conditions: A-375, 288 h
[4] = Toxicity in ip dosed ICR mouse assessed as maximum tolerated dose; assay type: organism-based; conditions: in vivo
[5] = test system: RPMI-7951; experiment: Antimigratory activity in human RPMI7951 cells assessed as wound closure at 25 nM after 18 hrs by scratch migration assay (reference value: 71.8 +/- 1.8%); assay type: functional
[6] = Acute toxicity in nude mouse xenografted with human A375 cells assessed as injury to lung at 30 mg/kg, ip administered once daily for 14 days by hematoxylin and eosin staining-based assay; assay type: organism-based; conditions: in vivo, 336 h
[7] = Acute toxicity in C57BL/6 mouse xenografted with mouse B16F10 cells assessed as injury to spleen at 30 mg/kg, ip administered once daily for 2 weeks with 2 days rest after day 5 and measured after 15 days by hematoxylin and eosin staining-based assay; assay type: organism-based; conditions: in vivo, 360 h
[8] = test system: A-375; experiment: Antimigratory activity in human A375 cells assessed as wound closure at 5 nM after 22 hrs by scratch migration assay (reference value: 60.7 +/- 3.5%); assay type: functional
[9] = Intrinsic clearance in CD-1 mouse liver microsomes in presence of NADPH regenerating system measured up to 4 hrs by UPLC-MS analysis; assay type: ADME, Microsome; conditions: read-out: CLH
[10] = Toxicity in nude mouse xenografted with human PC-3/TxR cells assessed as effect on body weight at 30 mg/kg administered every other day for 3 weeks; conditions: in vivo, 504 h
[11] = Acute toxicity in C57BL/6 mouse xenografted with mouse B16F10 cells assessed as injury to liver at 30 mg/kg, ip administered once daily for 2 weeks with 2 days rest after day 5 and measured after 15 days by hematoxylin and eosin staining-based assay; assay type: organism-based; conditions: in vivo, 360 h
[12] = Acute toxicity in nude mouse xenografted with human A375 cells assessed as injury to heart at 30 mg/kg, ip administered once daily for 14 days by hematoxylin and eosin staining-based assay; assay type: organism-based; conditions: in vivo, 336 h
[13] = test system: PC-3; experiment: Antiproliferative activity against human PC3 cells; assay type: functional, cell-based
[14] = Acute toxicity in nude mouse xenografted with human A375 cells assessed as injury to heart at 15 mg/kg, ip administered once daily for 14 days by hematoxylin and eosin staining-based assay; assay type: organism-based; conditions: in vivo, 336 h
[15] = Acute toxicity in nude mouse xenografted with human A375 cells assessed as injury to liver at 30 mg/kg, ip administered once daily for 14 days by hematoxylin and eosin staining-based assay; assay type: organism-based; conditions: in vivo, 336 h
[16] = Antitumor activity against human PC3-TxR cells xenografted in nude mouse assessed as reduction in tumor weight at 30 mg/kg administered every other day for 3 weeks relative to control; assay type: functional; parameters: scale not given: the % may be the effect or the level left
[17] = test system: M14; experiment: Antiproliferative activity against human M14 cells after 72 hrs by MTT assay; assay type: functional, cell-based; conditions: M14, 72 h
[18] = target: T1, Tubulin (Homo sapiens) (UniProt P68371+Q9H4B7+P0DPH7+P68366+Q13509+Q71U36+P04350+Q3ZCM7+P07437+P68363+Q9BQE3+Q6PEY2+Q13885+Q9BVA1+Q9BUF5); experiment: Disruption of microtubule network in human WM164 cells assessed as microtubule disassembly at 100 nM after 18 hrs by DAPI staining based fluorescence confocal microscopic method; assay type: cell-based
[19] = test system: WM164; experiment: Antiproliferative activity against human WM164 cells after 72 hrs by MTT assay; assay type: functional, cell-based; conditions: WM164, 72 h
[20] = Antitumor activity against human PC3-TxR cells xenografted in nude mouse assessed as tumor growth inhibition at 30 mg/kg administered every other day for 3 weeks relative to control; assay type: functional; conditions: 504 h, read-out: TGI
[21] = test system: A-375; experiment: Antimigratory activity in human A375 cells assessed as wound closure at 25 nM after 22 hrs by scratch migration assay (reference value: 60.7 +/- 3.5%); assay type: functional
[22] = Acute toxicity in nude mouse xenografted with human A375 cells assessed as injury to kidney at 30 mg/kg, ip administered once daily for 14 days by hematoxylin and eosin staining-based assay; assay type: organism-based; conditions: in vivo, 336 h
[23] = test system: A-375; experiment: Antiproliferative activity against human A375 cells after 72 hrs by MTT assay; assay type: functional, cell-based; conditions: A-375, 72 h, read-out: IC50
[24] = Acute toxicity in C57BL/6 mouse xenografted with mouse B16F10 cells assessed as injury to heart at 30 mg/kg, ip administered once daily for 2 weeks with 2 days rest after day 5 and measured after 15 days by hematoxylin and eosin staining-based assay; assay type: organism-based; conditions: in vivo, 360 h
[25] = target: T1, Tubulin (Homo sapiens); experiment: Disruption of microtubule network in human WM164 cells assessed as microtubule fragmentation at 100 nM after 18 hrs by DAPI staining based fluorescence confocal microscopic method; assay type: cell-based
[26] = Half-life in rat liver microsomes pre-incubated for 15 mins followed by addition of NADPH regenerating system by LC-MS analysis; assay type: ADME, Microsome
[27] = test system: DU-145; experiment: Antiproliferative activity against human DU145 cells; assay type: functional, cell-based
[28] = Acute toxicity in nude mouse xenografted with human A375 cells assessed as injury to lung at 15 mg/kg, ip administered once daily for 14 days by hematoxylin and eosin staining-based assay; assay type: organism-based; conditions: in vivo, 336 h
[29] = Antiproliferative activity against human DU145-TxR cells; assay type: functional, cell-based
[30] = target: 5-hydroxytryptamine receptor 2B (Homo sapiens, UniProt P41595); experiment: Antagonist activity at human HTR2B at 1 uM
[31] = Antiproliferative activity against human PC3-TxR cells; assay type: functional, cell-based
[32] = Intrinsic clearance in human liver microsomes in presence of NADPH regenerating system; assay type: ADME, Microsome; conditions: read-out: CLH
[33] = test system: A-375; experiment: Antitumor activity against human A375 cells xenografted in nude mouse assessed as tumor growth inhibition at 15 mg/kg, ip administered once daily for 14 days and measured after 20 days by caliper method relative to control; assay type: functional; conditions: A-375, ip, read-out: TGI
[34] = target: Sodium-dependent noradrenaline transporter (Homo sapiens, UniProt P23975); experiment: Antagonist activity at human norepinephrine transporter at 1 uM; assay type: ADME
[35] = Acute toxicity in C57BL/6 mouse xenografted with mouse B16F10 cells assessed as injury to kidney at 30 mg/kg, ip administered once daily for 2 weeks with 2 days rest after day 5 and measured after 15 days by hematoxylin and eosin staining-based assay; assay type: organism-based; conditions: in vivo, 360 h
[36] = Intrinsic clearance in rat liver microsomes pre-incubated for 15 mins followed by addition of NADPH regenerating system by LC-MS analysis; assay type: ADME, Microsome; conditions: read-out: CLH
[37] = Acute toxicity in C57BL/6 mouse xenografted with mouse B16F10 cells assessed as injury to lung at 30 mg/kg, ip administered once daily for 2 weeks with 2 days rest after day 5 and measured after 15 days by hematoxylin and eosin staining-based assay; assay type: organism-based; conditions: in vivo, 360 h
[38] = Acute toxicity in nude mouse xenografted with human A375 cells assessed as injury to kidney at 15 mg/kg, ip administered once daily for 14 days by hematoxylin and eosin staining-based assay; assay type: organism-based; conditions: in vivo, 336 h
[39] = Acute toxicity in nude mouse xenografted with human A375 cells assessed as injury to spleen at 15 mg/kg, ip administered once daily for 14 days by hematoxylin and eosin staining-based assay; assay type: organism-based; conditions: in vivo, 336 h
[40] = test system: A-375; experiment: Antitumor activity against human A375 cells xenografted in nude mouse assessed as tumor growth inhibition at 30 mg/kg, ip administered once daily for 14 days and measured after 20 days by caliper method relative to control; assay type: functional; conditions: A-375, ip, read-out: TGI
[41] = Resistance index, ratio of IC50 for human DU145-TxR cells to IC50 for human DU145 cells; assay type: functional
[42] = Resistance index, ratio of IC50 for human PC3-TxR cells to IC50 for human PC3 cells; assay type: functional
[43] = Half-life in human liver microsomes in presence of NADPH regenerating system; assay type: ADME, Microsome
[44] = test system: A-375; experiment: Antitumor activity against human A375 cells xenografted in nude mouse assessed as reduction in tumor weight at 15 mg/kg, ip administered once daily for 14 days relative to control; assay type: functional; parameters: scale not given: the % may be the effect or the level left
[45] = Acute toxicity in nude mouse xenografted with human A375 cells assessed as injury to liver at 15 mg/kg, ip administered once daily for 14 days by hematoxylin and eosin staining-based assay; assay type: organism-based; conditions: in vivo, 336 h
[46] = Half-life in CD-1 mouse liver microsomes in presence of NADPH regenerating system measured up to 4 hrs by UPLC-MS analysis; assay type: ADME, Microsome
[47] = Acute toxicity in nude mouse xenografted with human A375 cells assessed as injury to spleen at 30 mg/kg, ip administered once daily for 14 days by hematoxylin and eosin staining-based assay; assay type: organism-based; conditions: in vivo, 336 h
[48] = target: Tubulin (Bos taurus) (UniProt Q6B856+Q862L2+Q862F3); experiment: Inhibition of bovine brain tubulin polymerization at 10 uM measured at time interval of 1 mins for 20 mins by spectrophotometric analysis

Sodium-dependent noradrenaline transporter, sequence (P23975 whole entry): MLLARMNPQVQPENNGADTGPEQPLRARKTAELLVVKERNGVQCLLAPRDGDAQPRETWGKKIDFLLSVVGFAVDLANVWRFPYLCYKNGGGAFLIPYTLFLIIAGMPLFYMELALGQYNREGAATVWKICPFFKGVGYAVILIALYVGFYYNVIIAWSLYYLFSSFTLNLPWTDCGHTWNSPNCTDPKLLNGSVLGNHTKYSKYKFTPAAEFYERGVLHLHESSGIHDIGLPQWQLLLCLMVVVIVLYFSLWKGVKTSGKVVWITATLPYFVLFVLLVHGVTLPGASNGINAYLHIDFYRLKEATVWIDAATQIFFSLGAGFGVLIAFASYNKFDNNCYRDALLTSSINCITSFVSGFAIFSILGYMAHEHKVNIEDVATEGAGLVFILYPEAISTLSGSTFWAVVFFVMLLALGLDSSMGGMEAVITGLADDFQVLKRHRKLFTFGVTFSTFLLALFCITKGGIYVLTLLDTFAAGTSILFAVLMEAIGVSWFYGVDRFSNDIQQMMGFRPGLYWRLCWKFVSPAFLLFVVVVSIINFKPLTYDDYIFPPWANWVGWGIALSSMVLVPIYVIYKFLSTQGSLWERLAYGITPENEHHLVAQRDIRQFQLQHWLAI
5-hydroxytryptamine receptor 2B, sequence (P41595 whole entry): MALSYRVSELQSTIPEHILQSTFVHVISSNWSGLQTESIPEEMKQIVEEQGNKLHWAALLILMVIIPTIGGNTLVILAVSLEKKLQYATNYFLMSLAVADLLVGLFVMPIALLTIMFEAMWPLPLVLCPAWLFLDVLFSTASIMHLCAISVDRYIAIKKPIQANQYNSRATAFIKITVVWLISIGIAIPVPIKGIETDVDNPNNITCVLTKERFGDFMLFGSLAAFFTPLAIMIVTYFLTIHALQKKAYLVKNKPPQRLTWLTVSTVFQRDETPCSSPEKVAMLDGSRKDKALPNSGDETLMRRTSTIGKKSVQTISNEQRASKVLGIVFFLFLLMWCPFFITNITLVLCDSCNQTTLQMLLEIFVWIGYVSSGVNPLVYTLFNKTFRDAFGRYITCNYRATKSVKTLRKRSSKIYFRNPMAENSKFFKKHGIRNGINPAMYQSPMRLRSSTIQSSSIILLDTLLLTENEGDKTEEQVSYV

Structure (SMILES): COc1cc(C(=O)c2c[nH]c(-c3cccc4[nH]ccc34)n2)cc(OC)c1OC
- Activity [1]: 80.9%
- Activity [2]: 70.1%
- inhibition at 0.005 µM [3]: 35.6%
- MTD [4]: ≤ 65 mg/kg
- Activity [5]: 35%
- Activity [6]: Non-Toxic
- Activity [7]: Non-Toxic
- Activity [8]: 38.5%
- CLint scaled [9]: 11.3 mL/min/kg
- Activity [10]: Non-Toxic
- Activity [11]: Non-Toxic
- Activity [12]: Non-Toxic
- IC50 [13]: 0.0899 µM
- Activity [14]: Non-Toxic
- Activity [15]: Non-Toxic
- Activity [16]: 62.8%
- IC50 [17]: 0.0037 µM
- Activity [18]: Active
- IC50 [19]: 0.0016 µM
- inhibition in vivo at 30 mg/kg [20]: 83.8%
- Activity [21]: 38.5%
- Activity [22]: Non-Toxic
- IC50 [23]: 0.0036 µM
- Activity [24]: Non-Toxic
- Activity [25]: Active
- half-life [26]: 5.26 h
- IC50 [27]: 0.169 µM
- Activity [28]: Non-Toxic
- IC50 [29]: 0.379 µM
- Activity [30]: Active
- IC50 [31]: 0.0669 µM
- CLint scaled [32]: 3.1 mL/min/kg
- inhibition in vivo at 15 mg/kg [33]: 82.3%
- Activity [34]: Active
- Activity [35]: Non-Toxic
- CLint scaled [36]: 8.9 mL/min/kg
- Activity [37]: Non-Toxic
- Activity [38]: Non-Toxic
- Activity [39]: Non-Toxic
- inhibition in vivo at 30 mg/kg [40]: 90.6%
- Ratio IC50 [41]: 2.2
- Ratio IC50 [42]: 0.7
- half-life [43]: 6.72 h
- Activity [44]: 67.3%
- Activity [45]: Non-Toxic
- half-life [46]: 5.04 h
- Activity [47]: Non-Toxic
- inhibition [48]: Active

Source: ChEMBL document CHEMBL4364286, “Structure-Guided Design, Synthesis, and Biological Evaluation of (2-(1H-Indol-3-yl)-1H-imidazol-4-yl)(3,4,5-trimethoxyphenyl) Methanone (ABI-231) Analogues Targeting the Colchicine Binding Site in Tubulin” (J Med Chem, 2019)
